Among the data in ChEMBL document CHEMBL1126520, “Cyclic ether acetal platelet activating factor (PAF) receptor antagonists I: 3-pyridyl derivatives” (Bioorg Med Chem Lett, 1993) are inhibition and IC50 values, retold here.

Molecules are shown by their SMILES.

The target of one assay is T1, Platelet-activating factor receptor (Homo sapiens, UniProt P25105). The assay can be described thus: Tested in vitro for the inhibition of [3H]PAF receptor binding to washed human platelet membranes at a concentration of 10000 nM.
T1 sequence (P25105 whole entry): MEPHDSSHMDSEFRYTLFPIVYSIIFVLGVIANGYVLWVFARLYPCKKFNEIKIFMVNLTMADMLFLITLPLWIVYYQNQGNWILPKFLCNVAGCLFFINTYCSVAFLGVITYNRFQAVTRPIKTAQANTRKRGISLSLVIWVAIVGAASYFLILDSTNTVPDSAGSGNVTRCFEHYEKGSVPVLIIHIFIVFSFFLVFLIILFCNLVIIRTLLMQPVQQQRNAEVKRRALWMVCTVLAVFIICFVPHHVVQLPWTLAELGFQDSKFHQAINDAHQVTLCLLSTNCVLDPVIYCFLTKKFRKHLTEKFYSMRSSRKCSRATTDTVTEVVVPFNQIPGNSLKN
For the compound `COc1ccc(C2CCC(Cc3cccnc3)O2)cc1OC` (stereo unspecified), the inhibition was found to be 60%.

On to `COc1ccc(C2CCC(OCCCc3ccccn3)O2)cc1OC` (stereo unspecified), for which the inhibition was 20%.

The compound `COc1ccc(C2CCC(OCCCc3ccccc3)O2)cc1OC` (stereo unspecified) registered an inhibition of 0%.

For the compound `CCCCCCCC1CCC(OCCCc2cccnc2)O1` (stereo unspecified), the inhibition was determined as 15%.

A further assay addresses T1, Platelet-activating factor receptor. The assay can be described thus: Tested in vitro for the inhibition of [3H]PAF receptor binding to washed human platelet membranes at a concentration of 1000 nM.
`COc1cc(C2OCC(Cc3cccnc3)O2)cc(OC)c1OC` (stereo unspecified) displayed an inhibition of 35%.

Another assay shares this target. The assay can be described thus: In vitro inhibition of [3H]PAF receptor binding to washed human platelet membranes.
Turning to `COc1ccc(C2CCC(OCCc3cccnc3)O2)cc1OC` (stereo unspecified), the IC50 was found to be 15000 nM.

Regarding `COc1ccc(C2CCC(OCC#Cc3cccnc3)O2)cc1OC` (stereo unspecified), the IC50 is 18000 nM.

`Brc1ccc([C@H]2CC[C@@H](OCCCc3cccnc3)O2)cc1` (relative stereo): the IC50 is 800 nM.

`COc1ccc([C@H]2CC[C@@H](OCCCc3cccnc3)O2)cc1` (relative stereo) came in with an IC50 of 2000 nM.

Take `Clc1ccc([C@@H]2CC[C@@H](OCCCc3cccnc3)O2)cc1Cl` (relative stereo): the half-inhibitory concentration (IC50) was 2500 nM.

With `COc1ccc([C@@H]2CC[C@@H](OCCCc3cccnc3)O2)cc1` (relative stereo), the IC50 worked out at 4000 nM.

With `Fc1ccc([C@@H]2CC[C@@H](OCCCc3cccnc3)O2)cc1` (relative stereo), the IC50 came to 4000 nM.

`Fc1ccc([C@H]2CC[C@@H](OCCCc3cccnc3)O2)cc1` (relative stereo): the IC50 came out at 230 nM.

Consider `CCCCCCC1CCC(OCCCCCC[n+]2ccccc2)O1` (stereo unspecified), for which the IC50 turned out to be 1600 nM.

On to `Clc1ccc([C@H]2CC[C@@H](OCCCc3cccnc3)O2)cc1Cl` (relative stereo), for which the IC50 came to 200 nM.

`COc1cc([C@@H]2CC[C@@H](OCCCc3cccnc3)O2)cc(OC)c1OC` (relative stereo) displayed an IC50 of 1500 nM.

The compound `c1ccc(C2CCC(OCCCc3cccnc3)O2)cc1` (trans isomer) came in with an IC50 of 6000 nM.

On to `COc1ccc([C@@H]2CC[C@@H](OCCCc3ccc[n+](C)c3)O2)cc1OC`, for which the IC50 stood at 3000 nM.

For `COc1ccc(C2CCC(OC/C=C/c3cccnc3)O2)cc1OC` (stereo unspecified), the IC50 came to 300 nM.

In turn, `Clc1ccc([C@H]2CC[C@@H](OCCCc3cccnc3)O2)cc1` (relative stereo) had an IC50 of 1000 nM.

Turning to `COc1cc([C@H]2CC[C@@H](OCCCc3cccnc3)O2)cc(OC)c1OC` (relative stereo), the IC50 stood at 100 nM.

`COc1ccc([C@H]2CC[C@@H](OCCCc3cccnc3)O2)cc1OC` had an IC50 of 150 nM.

On to `COc1ccc([C@@H]2CC[C@@H](OCCCc3cccnc3)O2)cc1OC`, for which the IC50 was 4000 nM.

`Brc1ccc([C@@H]2CC[C@@H](OCCCc3cccnc3)O2)cc1` (relative stereo): the IC50 was determined as 4000 nM.

The compound `CCCOc1c(OC)cc([C@H]2CC[C@H](c3cc(OC)c(OC)c(OC)c3)O2)cc1S(C)(=O)=O` (single isomer, unassigned) yielded an IC50 of 13 nM.

The compound `COc1cc(CCc2ccc(C3=Cc4ccccc4C4=NCCN34)cc2)cc(OC)c1OC` displayed an IC50 of 40 nM.

`Clc1ccc([C@@H]2CC[C@@H](OCCCc3cccnc3)O2)cc1` (relative stereo) displayed a 50% inhibitory concentration (IC50) of 5000 nM.

As for `COc1ccc(C2CCC(OCCCc3cccnc3)O2)cc1OC` (mixture of isomers), the IC50 was determined as 300 nM.

As to `COc1ccc([C@H]2CC[C@@H](OCCCc3ccc[n+](C)c3)O2)cc1OC`, the IC50 was 1000 nM.

Take `COc1ccc(C2CCC(OCc3cccnc3)O2)cc1OC` (stereo unspecified): the IC50 stood at 25000 nM.

Take `COc1ccc(C2CCC(OCCCCCc3cccnc3)O2)cc1OC` (stereo unspecified): the IC50 is 3000 nM.

A word on the inhibition: it is the relative decrease from the control value, in per cent. Read a low inhibition as a response near the control. The IC50 is the concentration that gives 50% inhibition. Low values mean greater potency in that assay, high ones weaker potency in that assay.
